Source: patent US10799439B2, “Coating of clay micro-tubes on surfaces of hair and natural fibers” (Louisiana Tech Research Corporation, priority 2017, dated 2020)

Test: dye/drug loading of halloysite micro-tubes (TGA)
Assay type: physicochemical
Conditions: SDS-hydrophobized halloysite lumen
Method: One example method of loading the micro-tubes with a (substantially) water soluble hair dye agent uses the dye Indigo carmine. The Indigo carmine dye is dissolved in 1 mL of DI water at a ratio of 4% by weight (i.e., 40 mg of dye) under sonication. 40 mg of halloysite is added to the dispersion and sonicated until a homogeneous dispersion is obtained. The dispersion is place under a low vacuum (e.g., at approximately 1 psi or less) for three cycles, one hour for each cycle. The halloysite is then thoroughly washed with DI water five time by centrifuging at 10,600 rcf for three minutes. The washed halloysite was then dried in a hot air oven at 60° C. This procedure produced a 6 to 8 weight percent dye loading efficiency, i.e., weight of dye with respect to the weight of clay micro-tubes. However, different procedures may be used and generally it is desirable to generate micro-tubes loaded to about 5 to 10 weight percent dye loading efficiency, but in other embodiments, the loading efficiency could be between 2 to 35 weight percent (or any sub-range in between, with one specific example being 2% to 15%).
One example method of loading the micro-tubes with a (substantially) water insoluble hair dye agent uses the dye Lawsone. It is preferable to modify the halloysite lumen surface to allow more ready binding of nonpolar molecules. […]

CC1(C)C(C=C(Cl)Cl)C1C(=O)OCc1cccc(Oc2ccccc2)c1 (stereo not shown) [permethrin, Permethrin]
content in loaded nanotubes (TGA analysis): 3-5 wt. %
